Laboratory results reported in PubChem BioAssay (NCI).
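All cell lines were grown in 96-well plates and treated with compound for 48 hours. TGI: concentration producing complete growth inhibition.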

Columns and labels:
Assay in all cases: DTP human tumour cell line panel, 48 h
T-47D breast = test system: T-47D breast
K-562 leukemia = test system: K-562 leukemia
CCRF-CEM leukemia = test system: CCRF-CEM leukemia
CAKI-1 renal = test system: CAKI-1 renal
SK-MEL-2 melanoma = test system: SK-MEL-2 melanoma
SNB-19 CNS = test system: SNB-19 CNS
MOLT-4 leukemia = test system: MOLT-4 leukemia
M19-MEL melanoma = test system: M19-MEL melanoma
DMS 114 small cell lung = test system: DMS 114 small cell lung
LXFL 529 NSCLC = test system: LXFL 529 NSCLC
KM20L2 colon = test system: KM20L2 colon
XF 498 CNS = test system: XF 498 CNS
HOP-18 NSCLC = test system: HOP-18 NSCLC

Structure (SMILES) | TGI (T-47D breast) [µM] | TGI (K-562 leukemia) [µM] | TGI (CCRF-CEM leukemia) [µM] | TGI (CAKI-1 renal) [µM] | TGI (SK-MEL-2 melanoma) [µM] | TGI (SNB-19 CNS) [µM] | TGI (MOLT-4 leukemia) [µM] | TGI (M19-MEL melanoma) [µM] | TGI (DMS 114 small cell lung) [µM] | TGI (LXFL 529 NSCLC) [µM] | TGI (KM20L2 colon) [µM] | TGI (XF 498 CNS) [µM] | TGI (HOP-18 NSCLC) [µM]
CC1C2CCC3C(O)C2(CC(O)C2(O)C1CC(O)C2(C)C)CC3(C)O (centres undefined) | > 100 | > 100 | > 100 | > 100 | > 100 | > 100 | – | – | – | – | – | – | –
COc1ccc(/C=C2\C[C@H]3[C@@H]4CC=C5C[C@@H](OC(C)=O)CC[C@]5(C)[C@H]4CC[C@]3(C)\C2=N\O)cc1OC | > 100 | > 100 | > 100 | > 100 | > 100 | > 100 | > 100 | – | – | – | – | – | –
CCC1C(C#N)=C(O)NC(O)=C1C#N | – | – | – | > 100 | > 100 | > 100 | – | > 100 | > 100 | > 100 | > 100 | > 100 | > 100
O=C1C[C@H](COCc2ccccc2)NC(=O)C[C@H](COCc2ccccc2)NC(=O)C[C@H](COCc2ccccc2)N1 | > 100 | > 100 | > 100 | > 100 | > 100 | > 100 | > 100 | – | – | – | – | – | –
COC1CC(OC2CCC3(C)C(=CCC4C3C(OC(C)=O)C(OC(=O)CC(C)C)C3(C)C(C(C)=O)CCC43O)C2)OC(C)C1OC1CC(OC)C(OC2CC(OC)C(OC3OC(C)C(O)C(OC)C3O)C(C)O2)C(C)O1 (centres undefined) | > 100 | > 100 | 72.6 | > 100 | 93.3 | > 100 | 45.6 | – | – | – | – | – | –
CC[C@H](C)C1=C(OC(C)=O)[N@+]2([O-])Oc3ccc(-c4c(O)c(O)c(-c5ccc(OC(C)=O)cc5)c(OC(C)=O)c4OC(C)=O)cc3O[C@]2([C@@H](C)CC)C(=O)N1O | 37.7 | 29.2 | – | > 50 | > 50 | > 50 | > 50 | – | – | – | – | – | –
Nc1c(OCC(=O)O)ccc2cc(S(=O)(=O)O)ccc12 | > 100 | > 100 | > 100 | > 100 | > 100 | > 100 | – | – | – | – | – | – | –
O=C(O)C(O)(c1ccc(-c2ccccc2)cc1)c1ccc(-c2ccccc2)cc1 | > 100 | > 100 | – | > 100 | 30.6 | > 100 | > 100 | – | – | – | – | – | –
CO/N=C(/C)c1cccc(Nc2nc3ccc(Cl)cc3c3[nH]c4ccccc4c23)c1 | 7.28 | 34.6 | > 100 | 24.3 | 26.9 | 35.6 | 7.91 | – | – | – | – | – | –
C[C@]12Cc3cnc(-c4ccccc4)nc3C[C@@H]1CC[C@@H]1[C@@H]2CC[C@@]2(C)[C@H]1CC[C@]2(C)O | 39.7 | 29.4 | 77.7 | 16.6 | 58.3 | 44.3 | > 100 | – | – | – | – | – | –
O=C(O)C1OC1C(=O)O (centres undefined) | > 100 | > 100 | – | > 100 | > 100 | > 100 | – | – | – | – | – | – | –
CC(C)=Cc1cc(C)c2c3c(c(O)c(O)c(C)c13)C(C)=CC2=O | 49.3 | > 100 | – | 58.5 | 44.2 | > 100 | 54.7 | – | – | – | – | – | –
O=NN1C(c2ccccc2)C2CCCC(C2=O)C1c1ccccc1 (centres undefined) | – | 55.3 | > 83.6 | 94.1 | 40.5 | > 92.5 | > 78.1 | 37.1 | > 93.8 | – | 25.9 | 33.3 | > 25.2
Cc1cn(C2C=CC(COP(=O)(OCc3ccc([N+](=O)[O-])o3)N(C)CCCCCl)O2)c(=O)[nH]c1=O (centres undefined) | 7.05 | 21.6 | 25.4 | 37 | 12.9 | 21.3 | 26.4 | – | – | – | – | – | –
NC1C=NNC1=O (centres undefined) | – | > 100 | > 100 | > 100 | > 100 | > 100 | > 100 | – | > 100 | > 100 | > 100 | > 100 | –
CCOC(=O)c1nc2ccccc2n(CC)c1=O | > 100 | > 100 | > 100 | > 100 | > 100 | > 100 | > 100 | – | – | – | – | – | –
